What was measured:
Experiment in all cases: MIC / synergy test of MIT and IPBC mixtures in Sabouraud maltose broth
Type in all cases: cell-based
Aspergillus niger = settings: 96 hours; for MIC value: biocide used alone; for Synergy index Qa/QA + Qb/QB: method of Kull et al.
Method: (§1) The calculation of the synergy index is performed according to the method by F. C. Kull et al., Applied Microbiology, vol. 9 (1961), p. 538. The synergy index is calculated here using the following formula: Synergy index SI=Qa/QA+Qb/QB.
(§2) When this formula is used for the biocide system tested here, the variables in the formula have the following meaning: • […]=Concentration of MIT in biocide mixture of MIT and IPBC • QA=Concentration of MIT as the only biocide • Qb=Concentration of IPBC in biocide mixture of MIT and IPBC • QB=Concentration of IPBC as the only biocide
(§3) When the synergy index has a value of less than 1, that means that a synergy of the two biocides exists.
(§4) The test arrangements again included a Sabouraud maltose broth as culture medium. The cell density was 10^6 cells/ml. The incubation time was 96 hours at 25° C. Every sample was incubated at 120 r.p.m. on an incubation shaker.

Candida valida = settings: 96 hours; for MIC value: biocide used alone; for Synergy index Qa/QA + Qb/QB: method of Kull et al.
Method: as §1, §2, §3, §4

Penicillium funiculosum = settings: for MIC at IPBC concentration Qb: IPBC part of the MIC pair; for MIC value: biocide used alone; for Synergy index Qa/QA + Qb/QB: method of Kull et al.; for MIC at MIT concentration Qa: MIT part of the MIC pair
Method: as §1, §2, §3
The test arrangement again included a Sabouraud maltose broth as culture medium. The cell density was 10^6 germs/ml. The incubation time was 72 hours at 25° C. Every sample was incubated at 120 r.p.m. on an incubation shaker.
Example 5 was repeated with the change that the incubation time was 96 hours instead of 72 hours.

Saccharomyces cerevisiae = settings: for MIC at IPBC concentration Qb: IPBC part of the MIC pair; for MIC value: biocide used alone; for Synergy index Qa/QA + Qb/QB: method of Kull et al.; for MIC at MIT concentration Qa: MIT part of the MIC pair
Method: For that purpose, aqueous mixtures with different concentrations of 2-methylisothiazolin-3-one (MIT) and 3-iodo-2-propynyl-N-butylcarbamate (IPBC) were produced and the effects of those mixtures on Saccharomyces cerevisiae were tested.
In addition to the biocide components and water, the aqueous mixtures also contained a nutrient medium, specifically a Sabouraud maltose broth (trade product “Merck No. 10393”). The cell density of Saccharomyces cerevisiae was 10^6 cells/ml. The incubation time was 72 hours at 25° C. Each sample was incubated at 120 r.p.m. on an incubation shaker.
as §1, §2, §3
Example 1 was repeated with the change that the incubation time was 96 hours instead of 72 hours.

Which results are given for `CCCCNC(=O)OCC#CI` [IPBC, 3-iodo-2-propynyl-N-butylcarbamate]?
MIC at IPBC concentration Qb (Aspergillus niger; IPBC part of the MIC pair): 5 ppm; MIC value (Aspergillus niger): 5 ppm; Synergy index Qa/QA + Qb/QB (Aspergillus niger): 1.00; MIC at IPBC concentration Qb (Candida valida; IPBC part of the MIC pair): 2.5 ppm; MIC value (Candida valida): 2.5 ppm; Synergy index Qa/QA + Qb/QB (Candida valida): 1.00; MIC at IPBC concentration Qb (Penicillium funiculosum; 72 hours): 1.5 ppm; MIC value (Penicillium funiculosum; 72 hours): 1.5 ppm; Synergy index Qa/QA + Qb/QB (Penicillium funiculosum; 72 hours): 1.00; MIC at IPBC concentration Qb (Penicillium funiculosum; 96 hours): 1.5 ppm; MIC value (Penicillium funiculosum; 96 hours): 1.5 ppm; Synergy index Qa/QA + Qb/QB (Penicillium funiculosum; 96 hours): 1.00; MIC at IPBC concentration Qb (Saccharomyces cerevisiae; 72 hours): 10 ppm; MIC value (Saccharomyces cerevisiae; 72 hours): 10 ppm; Synergy index Qa/QA + Qb/QB (Saccharomyces cerevisiae; 72 hours): 1.00; MIC at IPBC concentration Qb (Saccharomyces cerevisiae; 96 hours): 10 ppm; MIC value (Saccharomyces cerevisiae; 96 hours): 10 ppm; Synergy index Qa/QA + Qb/QB (Saccharomyces cerevisiae; 96 hours): 1.00

Which results are given for `Cn1sccc1=O` [MIT, 2-methylisothiazolin-3-one]?
MIC at MIT concentration Qa (Aspergillus niger; MIT part of the MIC pair): 750 ppm; MIC value (Aspergillus niger): 750 ppm; Synergy index Qa/QA + Qb/QB (Aspergillus niger): 1.00; MIC at MIT concentration Qa (Candida valida; MIT part of the MIC pair): 75 ppm; MIC value (Candida valida): 75 ppm; Synergy index Qa/QA + Qb/QB (Candida valida): 1.00; MIC at MIT concentration Qa (Penicillium funiculosum; 72 hours): 200 ppm; MIC value (Penicillium funiculosum; 72 hours): 200 ppm; Synergy index Qa/QA + Qb/QB (Penicillium funiculosum; 72 hours): 1.00; MIC at MIT concentration Qa (Penicillium funiculosum; 96 hours): 200 ppm; MIC value (Penicillium funiculosum; 96 hours): 200 ppm; Synergy index Qa/QA + Qb/QB (Penicillium funiculosum; 96 hours): 1.00; MIC at MIT concentration Qa (Saccharomyces cerevisiae; 72 hours): 150 ppm; MIC value (Saccharomyces cerevisiae; 72 hours): 150 ppm; Synergy index Qa/QA + Qb/QB (Saccharomyces cerevisiae; 72 hours): 1.00; MIC at MIT concentration Qa (Saccharomyces cerevisiae; 96 hours): 150 ppm; MIC value (Saccharomyces cerevisiae; 96 hours): 150 ppm; Synergy index Qa/QA + Qb/QB (Saccharomyces cerevisiae; 96 hours): 1.00

Reference: US20050124674A1, “Synergistic biocide composition” (priority 1998, published 2005)
